Experimental data: publication PMC8932751 (Clinical and Translational Science, 2021)

What was measured:
[1] = investigation cohort, 70 patients
[2] = atorvastatin and its metabolites; cited from earlier work

SMILES: CC(C)c1c(C(=O)Nc2ccccc2)c(-c2ccccc2)c(-c2ccc(F)cc2)n1CC[C@@H](O)C[C@@H](O)CC(=O)O [atorvastatin]
- patients with myalgia at any time during follow-up [1]: 8.6%
- σ (SD), residual variability (exponential residual error): 0.085
- ωQ (SD), between-subject variability (final PopPK model): 0.715
- ωVc (SD), between-subject variability (final PopPK model): 1.18
- ωVp (SD), between-subject variability (final PopPK model): 0.508
- fraction of the oral dose excreted in urine [2]: less than 1%
